Measurements reported in patent US20150374702A1 (CATHOLIC UNIVERSITY INDUSTRY ACADEMIC COOPERATION FOUNDATION, priority 2013, published 2015).

What was measured:
Capan-1 xenograft tumor [1] = assay: Suppression of tumor growth by doxorubicin or liposomal doxorubicin after pentoxifylline pretreatment; assay type: in vivo, BALB/c nu/nu mice; conditions: doxorubicin 8 mg/kg i.v., with or without pentoxifylline pretreatment 100 mg/kg/d for two weeks; normalized to volume at treatment start; P<0.05
Description: (§1) Female BALB/c nu/nu mice (5 to 6 weeks old) were purchased from Orient Bio Inc. (Seongnam City, Gyeonggi-do, Korea), and were raised in a germ-free animal breeding facility at the Catholic University of Korea, Catholic Medical Center (Seoul, Korea). The animals were raised in a standard state, and supplied with food and water ad libitum. The animals were taken care of in accordance with the guidelines of the Institutional Animal Care and Use Committee (IACUC) of School of Medicine of the Catholic University of Korea (Approval Number; CUMC-2010-0141-01). For induction of tumor, Capan-1 cells were harvested after the trypsin treatment, 5×10^6 living cells were subcutaneously injected into the right flanks of the mice. After tumor was induced, the mice were sacrificed, tumor samples were obtained, and experiments were performed according to each Example to be described below.

Capan-1 xenograft tumor [2] = assay: Suppression of tumor growth by combinatory treatment of pentoxifylline and gemcitabine; assay type: in vivo, BALB/c nu/nu mice; conditions: pentoxifylline alone 100 mg/kg/d i.p., 28 days
Description: as §1
The tumor size (mm^3) was calculated by using the equation: V=(a×b^2)/2 (a is the largest diameter of tumor, and b is the smallest diameter of tumor). The relative tumor size was normalized with respect to the volume when a drug treatment of Capan-1 xenograft tumor was initiated. At least three mice per group were used, and the results were presented as an average standard error (SE). The statistical significance was determined by using a 2-sample t-test inferred from the Microsoft Excel 2007. […]

CD31 = assay: Blood vessel density by CD31 immunostaining in tumor sections; assay type: in vivo, BALB/c nu/nu mice; conditions: with versus without pentoxifylline
Description: as §1

collagen type I = assay: Collagen type I content in tumor sections (immunofluorescence); assay type: in vivo, mice
Description: as §1

[3] = system: mouse COLIA1 (collagen type I, alpha 1); assay: Collagen type I mRNA expression in tumor (quantitative real-time RT-PCR); assay type: in vivo; conditions: pentoxifylline pretreatment for two weeks; P<0.02
Description: as §1, with “After tumor was induced, the mice were sacrificed, tumor samples were obtained, and experiments were performed according to each Example to be described below.” left out
(§2) In order to confirm the mRNA expression level of collagen type I, RT-PCR was performed. For the quantitative real-time RT-PCR analysis, total RNAs were isolated from tumor homogenates using the Trizol method and quantified by Nanodrop spectrophotometer (ND-1000). After 1 μg of total RNAs was reverse transcribed from the tissue with AccuPower CycleScript RT PreMix (Bioneer), a quantitative real-time polymerase chain reaction was performed using the LightCycler 480 Real-Time PCR System II (Roche) with SYBR Green Master mix (Roche) according to the manufacturer's recommendation. […]

α-SMA = assay: Immunohistochemical staining of α-SMA in tumor sections; assay type: in vivo, mice; conditions: pentoxifylline for two weeks; p<0.001
Description: as §1, with “below. […] Immunohistochemical staining for α-SMA, TGF-β1, and CTGF was performed using Dako Envision Detection System ([…], DAKO). Paraffin-embedded, formalin fixed samples were cut into sections having a thickness of 3 μm, deparaffinized and rehydrated. For antigen retrieval, a pressure cooker of a microwave method was used as a target retrieval solution ([…], DAKO) for 5 minutes (pH 9.0), and cooled at room temperature for 20 minutes. […]” for “below.”

CTGF = assay: Immunohistochemical staining of CTGF in tumor sections; assay type: in vivo, mice; conditions: pentoxifylline for two weeks; p<0.05
Description: as §1, with “below. […] Immunohistochemical staining for α-SMA, TGF-β1, and CTGF was performed using Dako Envision Detection System ([…], DAKO). Paraffin-embedded, formalin fixed samples were cut into sections having a thickness of 3 μm, deparaffinized and rehydrated. For antigen retrieval, a pressure cooker of a microwave method was used as a target retrieval solution ([…], DAKO) for 5 minutes (pH 9.0), and cooled at room temperature for 20 minutes. […]” for “below.”

TGF-β1 [4] = assay: Total and active TGF-β1 in tumor homogenate (ELISA); assay type: in vivo, mice; conditions: ELISA of tumor homogenate
Description: as §1
Frozen tumors were cut into small pieces, and homogenized using Precellys 24 homogenizer (Bertin Technologies) in Tissue Extraction Reagent I (Invitrogen) containing protease inhibitor cocktail (Complete Mini, Roche). […] Total protein concentrations were determined by BCA protein assay kit (Pierce). Total and active TGF-β1 concentrations were determined using TGF-β1 ELISA kit (eBioscience) according to the manufacturer's protocol.

TGF-β1 [5] = assay: Immunohistochemical staining of TGF-β1 in tumor sections; assay type: in vivo, mice
Description: as §1, with “below. […] Immunohistochemical staining for α-SMA, TGF-β1, and CTGF was performed using Dako Envision Detection System ([…], DAKO). Paraffin-embedded, formalin fixed samples were cut into sections having a thickness of 3 μm, deparaffinized and rehydrated. For antigen retrieval, a pressure cooker of a microwave method was used as a target retrieval solution ([…], DAKO) for 5 minutes (pH 9.0), and cooled at room temperature for 20 minutes. […]” for “below.”

mouse TGF-β1 = assay: TGF-β1 mRNA expression in tumor (quantitative real-time RT-PCR); assay type: in vivo; conditions: pentoxifylline versus control; direction not stated at b84
Description: as §1, with “After tumor was induced, the mice were sacrificed, tumor samples were obtained, and experiments were performed according to each Example to be described below.” left out
as §2, with “For” for “In order to confirm the mRNA expression level of collagen type I, RT-PCR was performed. For”
All expression data were normalized using the GAPDH expression. The relative gene expression was quantified using the ΔΔCt method (2-ΔΔCt).

Row | Compound | relative tumor size at day 23 (Capan-1 xenograft tumor [1]) | anti-tumor effects compared to the control group of saline treatment (Capan-1 xenograft tumor [2]) | blood vessel density exhibited by CD31 immunostaining (CD31) | collagen content at high dose (100 mg/kg) versus low dose (50 mg/kg) (collagen type I; i.p. for two weeks, P<0.05) | collagen type I contents in central and marginal regions of the tumor sections (collagen type I; pentoxifylline i.p. for two weeks versus saline) | reduction of mRNA expression of collagen I compared to the control group [3] [%] | reduction of immunostaining of α-SMA in the tumor sections (α-SMA) [%] | reduction of immunostaining of CTGF in the tumor sections (CTGF) [%] | effect on active TGF-β1 level in the tumor tissue (TGF-β1 [4]) | effect on total TGF-β1 level in the tumor tissue (TGF-β1 [4]) | effect on TGF-β1 immunohistochemical staining in the tumor tissue (TGF-β1 [5]) | TGF-β1 mRNA expression (mouse TGF-β1)
1 | COc1cccc2c1C(=O)c1c(O)c3c(c(O)c1C2=O)C[C@@](O)(C(=O)CO)C[C@@H]3O[C@H]1C[C@H](N)[C@H](O)[C@H](C)O1 [doxorubicin] | 1.52 |  |  |  |  |  |  |  |  |  |  | 
2 | CC(=O)CCCCn1c(=O)c2c(ncn2C)n(C)c1=O [pentoxifylline, 1-(5-oxohexyl)-3,7-dimethylxanthine] |  | anti-tumor effects did not appear | no difference between groups | slightly lower | reduced | 72 | 66 | 25 | no effects | no effects | no effects | big difference
